Like-named read-outs stand apart in the source and are kept apart here. Some results are limits rather than exact numbers.

The text below walks through data of patent publication US20250152585A1, “PHARMACEUTICAL COMPOUND” (Duke Street Bio Limited, priority 2022, published 2025).

In test [1] the target is T1, PARP2 (Homo sapiens, UniProt Q9UGN5).
T1 construct: host or cells: HEK293
The test is described as follows: NanoBRET cellular target occupancy assay, PARP2. In kind it is cell-based. The following applies: HEK293 cells transiently transfected with PARP2-NanoLuc fusion; tracer 2 nM; 2 hours at 37° C.; Kd by Cheng-Prussoff. The text has this:
NanoBRET Cellular Target Occupancy Assay
(Bioluminescence resonance energy transfer reports proximity on the nanometre scale.)

For test [2], the target named is T2, full length N-terminally FLAG-tagged PARP1 (Homo sapiens, UniProt P09874). Put plainly: PARP1 biochemical DELFIA assay (auto-PARylation). Also on record: recombinant full length human N-terminally FLAG-tagged PARP1.
Test [3] has as its target T3, N-terminally FLAG-tagged PARP2 (amino acids 1-583) (Homo sapiens, UniProt Q9UGN5).
T3 construct: N-terminally FLAG-tagged PARP2 (amino acids 1-583)
The test is described as follows: PARP2 probe displacement HTRF assay. It counts as binding. The settings on record: binned Kd. As to the method: Data analysis was performed identical as for PARP1.
Background: Time-resolved FRET reads energy transfer from a long-lived donor to a nearby acceptor.

Test [4] addresses T2, full length N-terminally FLAG-tagged PARP1. Put plainly: PARP1 probe displacement HTRF assay. The settings on record: for Selectivity: PARP1 over PARP2, ratio Kd (PARP2)/Kd (PARP1); for Kd: read-out: PARP1 HTRF, binned Kd.
Test [5] deals with T4, PARP1 (Homo sapiens, UniProt P09874).
T4 construct: host or cells: HEK293
Put plainly: NanoBRET cellular target occupancy assay, PARP1. The following applies: for Kd: HEK293 cells transiently transfected with PARP1-NanoLuc fusion, tracer 11 nM, 2 hours at 37° C., Kd by Cheng-Prussoff; for Selectivity: NanoBRET, PARP1 over PARP2, Kd (PARP2)/Kd (PARP1). It counts as cell-based.

The mark [6] stands for this setting: binned IC50, biochemical auto-PARylation assay.
[7] abbreviates: binned IC50, PARP1 biochemical DELFIA assay.

T4 sequence (P09874 whole entry): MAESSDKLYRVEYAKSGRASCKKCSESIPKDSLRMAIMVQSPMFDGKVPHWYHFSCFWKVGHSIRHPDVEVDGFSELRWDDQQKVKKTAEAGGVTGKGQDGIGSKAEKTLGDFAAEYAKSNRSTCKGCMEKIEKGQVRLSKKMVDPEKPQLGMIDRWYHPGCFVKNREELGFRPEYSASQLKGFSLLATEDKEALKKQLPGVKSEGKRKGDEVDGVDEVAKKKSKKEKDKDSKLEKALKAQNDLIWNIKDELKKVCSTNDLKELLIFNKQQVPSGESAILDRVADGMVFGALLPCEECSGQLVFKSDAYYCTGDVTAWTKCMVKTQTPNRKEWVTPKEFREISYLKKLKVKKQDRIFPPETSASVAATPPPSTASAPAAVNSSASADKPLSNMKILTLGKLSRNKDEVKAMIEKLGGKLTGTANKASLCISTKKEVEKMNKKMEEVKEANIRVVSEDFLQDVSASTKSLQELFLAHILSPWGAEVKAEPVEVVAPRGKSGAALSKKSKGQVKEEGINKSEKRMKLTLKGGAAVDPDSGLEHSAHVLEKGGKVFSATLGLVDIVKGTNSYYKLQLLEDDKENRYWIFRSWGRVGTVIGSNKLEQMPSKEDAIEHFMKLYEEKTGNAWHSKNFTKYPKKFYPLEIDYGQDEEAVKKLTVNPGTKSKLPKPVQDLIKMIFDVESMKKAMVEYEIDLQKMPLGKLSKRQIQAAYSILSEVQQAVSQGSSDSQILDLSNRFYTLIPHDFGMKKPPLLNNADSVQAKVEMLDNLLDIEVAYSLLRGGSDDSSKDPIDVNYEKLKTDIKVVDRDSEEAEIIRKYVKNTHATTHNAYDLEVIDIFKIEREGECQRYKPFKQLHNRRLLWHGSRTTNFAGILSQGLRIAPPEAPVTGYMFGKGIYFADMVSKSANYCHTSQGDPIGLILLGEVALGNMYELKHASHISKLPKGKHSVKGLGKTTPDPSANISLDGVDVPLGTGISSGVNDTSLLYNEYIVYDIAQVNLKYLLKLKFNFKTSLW
T2 sequence (P09874 whole entry, the tested form may be a part): as the sequence (P09874 whole entry) above
T3 sequence (Q9UGN5 whole entry, the tested form may be a part): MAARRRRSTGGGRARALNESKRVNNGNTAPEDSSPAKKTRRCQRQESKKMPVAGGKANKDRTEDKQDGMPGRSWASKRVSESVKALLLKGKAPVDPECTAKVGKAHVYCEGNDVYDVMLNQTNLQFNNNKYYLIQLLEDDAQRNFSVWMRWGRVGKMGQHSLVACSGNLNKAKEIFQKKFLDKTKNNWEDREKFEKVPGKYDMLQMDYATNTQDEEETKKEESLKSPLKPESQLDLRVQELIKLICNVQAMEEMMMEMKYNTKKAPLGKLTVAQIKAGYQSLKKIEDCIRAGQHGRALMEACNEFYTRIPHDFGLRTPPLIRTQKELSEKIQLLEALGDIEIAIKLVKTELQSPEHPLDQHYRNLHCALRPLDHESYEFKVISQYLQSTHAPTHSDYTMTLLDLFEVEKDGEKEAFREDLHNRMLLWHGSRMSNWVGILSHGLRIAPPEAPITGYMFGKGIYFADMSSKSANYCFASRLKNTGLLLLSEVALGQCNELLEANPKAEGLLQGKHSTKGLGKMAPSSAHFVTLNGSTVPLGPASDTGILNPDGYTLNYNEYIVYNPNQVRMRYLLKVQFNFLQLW
T1 sequence (Q9UGN5 whole entry): as the sequence (Q9UGN5 whole entry, the tested form may be a part) above

On to `CNC(=O)c1ccc(N2CCC(N3CCC(c4cc5ncc(F)cc5c(=O)[nH]4)C3)CC2)cn1` (racemic) [Compound 315rac], for which the Kd is 100 to 1000 nM in test [1], 100 to 1000 nM in test [3] (probe displacement HTRF), less than 10 nM in test [4] (probe displacement HTRF) and less than 10 nM in test [5]. In addition, the IC50 (as a rule, the concentration that inhibits the measured activity by half) in test [2] (setting [6]) is less than 10 nM. Also, the Selectivity result in test [4] (probe displacement HTRF) and in test [5] was “+++ (+++ indicate a value of at least 100)” throughout.

In the case of `CNC(=O)c1ccc(N2CCC(N3CCC(c4cc5ccc(F)cc5c(=O)[nH]4)C3)CC2)nn1` (single isomer, unassigned) [Compound 197a], the Kd is 100 to 1000 nM in test [1], 100 to 1000 nM in test [3] (PARP2 probe displacement HTRF), less than 10 nM in test [4] (PARP1 probe displacement HTRF) and less than 10 nM in test [5]. Further, the IC50 in test [2] (setting [7]) was less than 10 nM. Also, the Selectivity result in test [4] (probe displacement HTRF) and in test [5] was “+++ (+++ indicate a value of at least 100)” in each case.

Take `CNC(=O)c1ccc(N2CCC(N3CCC(c4cc5ncc(Cl)cc5c(=O)[nH]4)C3)CC2)cn1` (racemic) [Compound 329rac]: the Kd in test [1] is 1000 to 10000 nM; in test [3] (probe displacement HTRF), 100 to 1000 nM; in test [4] (probe displacement HTRF), less than 10 nM; in test [5] it was less than 10 nM. The IC50 in test [2] (setting [6]) was less than 10 nM. For the same compound, the Selectivity entry in test [4] (probe displacement HTRF) and in test [5] was “+++ (+++ indicate a value of at least 100)” throughout.

For the compound `CNC(=O)c1ccc(N2CCC(N3CCC(c4cc5ccc(F)cc5c(=O)[nH]4)C3)CC2)c(F)n1` (single isomer, unassigned) [Compound 174a], the Kd in test [1] was 1000 to 10000 nM; in test [3] (PARP2 probe displacement HTRF) it was 100 to 1000 nM; in test [4] (PARP1 probe displacement HTRF), less than 10 nM; in test [5], less than 10 nM. Also, the IC50 in test [2] (setting [7]) is less than 10 nM. The Selectivity result in test [4] (probe displacement HTRF) and in test [5] was “+++ (+++ indicate a value of at least 100)” throughout.

In the case of `CNC(=O)c1ccc(N2CCC(N3CCC(c4cc5ccc(F)cc5c(=O)[nH]4)C3)CC2)c(Cl)n1` (racemic) [Compound 175rac], the Kd was 1000 to 10000 nM in test [1], 100 to 1000 nM in test [3] (PARP2 probe displacement HTRF), less than 10 nM in test [4] (PARP1 probe displacement HTRF) and less than 10 nM in test [5]. In addition, in test [2] (setting [7]), the IC50 is less than 10 nM. The Selectivity result in test [4] (probe displacement HTRF) and in test [5] was “+++ (+++ indicate a value of at least 100)” each time.

`CCc1ccc(C2CCN(C3CCN(c4ccc(C(=O)NCCF)nc4F)CC3)C2)[nH]c1=O` (single isomer, unassigned) [Compound 322b]: the Kd in test [1] was 100 to 1000 nM; in test [3] (probe displacement HTRF) it was 100 to 1000 nM; in test [4] (probe displacement HTRF) it was less than 10 nM; in test [5], less than 10 nM. Further, the IC50 in test [2] (setting [6]) is less than 10 nM. Besides, the Selectivity entry in test [4] (probe displacement HTRF) and in test [5] was “+++ (+++ indicate a value of at least 100)” throughout.

Take `CNC(=O)c1ccc(N2CCC(N3CCC(c4cc5c(F)ccc(F)c5c(=O)[nH]4)C3)CC2)c(F)n1` (single isomer, unassigned) [Compound 323b]: the Kd in test [1] is 100 to 1000 nM; in test [3] (probe displacement HTRF), 10 to 100 nM; in test [4] (probe displacement HTRF), less than 10 nM; in test [5], less than 10 nM. Besides, the IC50 in test [2] (setting [6]) is less than 10 nM. In addition, the Selectivity result in test [4] (probe displacement HTRF) and in test [5] was “+++ (+++ indicate a value of at least 100)” in each case.

As for `CNC(=O)c1ccc(N2CCC(N3CCC(c4nc5ccccc5c(=O)[nH]4)C3)CC2)cn1` (single isomer, unassigned) [Compound 10b, N-methyl-5-(4-(3-(4-oxo-3,4-dihydroquinazolin-2-yl)pyrrolidin-1-yl)piperidin-1-yl)picolinamide], the Kd in test [1] is 1000 to 10000 nM; in test [3] (PARP2 probe displacement HTRF), 100 to 1000 nM; in test [4] (PARP1 probe displacement HTRF), less than 10 nM; in test [5] it was less than 10 nM. For the same compound, the IC50 in test [2] (setting [7]) is less than 10 nM. For the same compound, the Selectivity entry in test [4] (probe displacement HTRF) and in test [5] was “+++ (+++ indicate a value of at least 100)” in each case.

Consider `CNC(=O)c1ccc(N2CCC(N3CCC(c4nc5ccc(F)cc5c(=O)[nH]4)C3)CC2)cn1` (single isomer, unassigned) [Compound 64b], for which the Kd is 100 to 1000 nM in test [1], 100 to 1000 nM in test [3] (PARP2 probe displacement HTRF), less than 10 nM in test [4] (PARP1 probe displacement HTRF) and less than 10 nM in test [5]. For the same compound, the IC50 in test [2] (setting [7]) is less than 10 nM. Also, the Selectivity result in test [4] (probe displacement HTRF) and in test [5] was “+++ (+++ indicate a value of at least 100)” in each case.

On to `CNC(=O)c1ccc(N2CCC(N3CCC(c4cc5c(F)ccc(F)c5c(=O)[nH]4)C3)CC2)cn1` (single isomer, unassigned) [Compound 180b], for which the Kd in test [1] is 100 to 1000 nM; in test [3] (PARP2 probe displacement HTRF), 10 to 100 nM; in test [4] (PARP1 probe displacement HTRF), less than 10 nM; in test [5], less than 10 nM. In test [2] (setting [7]), the 50% inhibitory concentration (IC50) was less than 10 nM. Further, the Selectivity result in test [4] (probe displacement HTRF) is on record as “++ (++ indicates a value of 50 to less than 100)”; in test [5] it was “+++ (+++ indicate a value of at least 100)”.

With `CNC(=O)c1ccc(N2CCC(N3CCC(c4cc5ccc(F)cc5c(=O)[nH]4)C3)CC2)c(Cl)n1` (single isomer, unassigned) [Compound 223b], the Kd in test [1] is 100 to 1000 nM; in test [3] (probe displacement HTRF), 100 to 1000 nM; in test [4] (probe displacement HTRF), less than 10 nM; in test [5], less than 10 nM. Moreover, the half-maximal inhibitory concentration (IC50) in test [2] (setting [6]) was less than 10 nM. Also, the Selectivity entry in test [4] (probe displacement HTRF) and in test [5] was “+++ (+++ indicate a value of at least 100)” each time.

As for `CNC(=O)c1ccc(N2CCC(N3CCC(c4nc5cccc(C(F)(F)F)c5c(=O)[nH]4)C3)CC2)cn1` (single isomer, unassigned) [Compound 86b], the Kd is 10 to 100 nM in test [1], less than 10 nM in test [3] (PARP2 probe displacement HTRF), less than 10 nM in test [4] (PARP1 probe displacement HTRF) and less than 10 nM in test [5]. The IC50 in test [2] (setting [7]) was less than 10 nM. Also, the Selectivity result in test [4] (probe displacement HTRF) and in test [5] was “+ (+ indicates a value of 10 to less than 50)” each time.

For `CNC(=O)c1ccc(N2CCC(N3CCC(c4nc5ccccc5c(=O)[nH]4)C3)CC2)c(F)n1` (racemic) [Compound 157rac], the Kd is more than 10000 nM in test [1], 1000 to 10000 nM in test [3] (PARP2 probe displacement HTRF), less than 10 nM in test [4] (PARP1 probe displacement HTRF) and less than 10 nM in test [5]. Moreover, the IC50 in test [2] (setting [7]) is less than 10 nM. In addition, the Selectivity result in test [4] (probe displacement HTRF) and in test [5] was “+++ (+++ indicate a value of at least 100)” each time.

Consider `CCc1ccc(C2CCN(C3CCN(c4ccc(C(=O)NC5CC5)nc4F)CC3)C2)[nH]c1=O` (single isomer, unassigned) [Compound 353a], for which the Kd is 100 to 1000 nM in test [1], 100 to 1000 nM in test [3] (probe displacement HTRF), less than 10 nM in test [4] (probe displacement HTRF) and less than 10 nM in test [5]. For the same compound, in test [2] (setting [6]), the IC50 was less than 10 nM. Further, the Selectivity entry in test [4] (probe displacement HTRF) and in test [5] was “+++ (+++ indicate a value of at least 100)” throughout.
